Measured values from ChEMBL document CHEMBL1131794, “The synthesis and evaluation of 6-alkylidene-2'beta-substituted penam sulfones as beta-lactamase inhibitors” (Bioorg Med Chem Lett, 1999).

Key:
Beta-lactamase [1] = biological target: T1, Beta-lactamase (Staphylococcus aureus, UniProt P00807); assay: Inhibitory activity against serine beta-lactamase, PC1 (class A) derived from Staphylococcus aureus
Beta-lactamase TEM = Beta-lactamase TEM (Escherichia coli, UniProt P62593); assay: Inhibitory activity against serine Beta-lactamase TEM derived from […]; assay type: single protein
Sequence of Beta-lactamase TEM (P62593 whole entry): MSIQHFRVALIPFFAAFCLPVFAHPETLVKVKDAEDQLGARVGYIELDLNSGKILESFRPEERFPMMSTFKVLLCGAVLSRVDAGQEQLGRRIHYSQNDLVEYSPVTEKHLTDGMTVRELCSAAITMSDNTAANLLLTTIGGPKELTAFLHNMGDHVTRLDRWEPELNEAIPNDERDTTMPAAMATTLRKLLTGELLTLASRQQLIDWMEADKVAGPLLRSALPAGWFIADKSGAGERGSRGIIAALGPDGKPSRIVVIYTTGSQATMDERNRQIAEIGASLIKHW

Beta-lactamase [2] = biological target: T1, Beta-lactamase; assay: Inhibitory activity against serine Beta-lactamase derived from Staphylococcus aureus
Klebsiella aerogenes = assay: In vitro synergistic activity against Enterobacter aerogenes GC 6268 clinical isolate; assay type: functional; also: test concentration or dose not given here
Escherichia coli [3] = assay: In vitro synergistic activity against Escherichia coli 4100 (no beta-lactamase); assay type: functional
Escherichia coli [4] = assay: In vitro synergistic activity against Escherichia coli C600N + (PSE-1); assay type: functional
Staphylococcus aureus = assay: In vitro synergistic activity against Staphylococcus aureus (PC1); assay type: functional; also: test concentration or dose not given here
Escherichia coli [5] = assay: In vitro synergistic activity against Escherichia coli 300 + (ampR ampC); assay type: functional; also: test concentration or dose not given here
Escherichia coli [6] = assay: In vitro synergistic activity against Escherichia coli C600N + (Imi-1); assay type: functional
Escherichia coli [7] = assay: In vitro synergistic activity against Escherichia coli C600N + (SHV-1); assay type: functional
Escherichia coli [8] = assay: In vitro synergistic activity against Escherichia coli C600N + (P99); assay type: functional
Klebsiella pneumoniae [9] = assay: In vitro synergistic activity against Klebsiella pneumoniae (ACT-1 + 3 blas, IPM=S); assay type: functional; also: test concentration or dose not given here
Pseudomonas aeruginosa = assay: In vitro synergistic activity against Pseudomonas aeruginosa Ps505A1 (AmpC derepressed); assay type: functional
Enterobacter cloacae [10] = assay: In vitro synergistic activity against Enterobacter cloacae (Imi-1+AmpC); assay type: functional
Escherichia coli [11] = assay: In vitro synergistic activity against Escherichia coli C600N + (TEM-10); assay type: functional
Escherichia coli [12] = assay: In vitro synergistic activity against Escherichia coli C600N + (SHV-4); assay type: functional
Escherichia coli [13] = assay: In vitro synergistic activity against Escherichia coli C600N + (IRT-2); assay type: functional; also: test concentration or dose not given here
Escherichia coli [14] = assay: In vitro synergistic activity against Escherichia coli 4100 + (CCRA); assay type: functional
Escherichia coli [15] = assay: In vitro synergistic activity against Escherichia coli 300 + (TEM-1); assay type: functional
Escherichia coli [16] = assay: In vitro synergistic activity against Escherichia coli ATCC 35218 (TEM-1); assay type: functional
Aeromonas sobria = assay: In vitro synergistic activity against Aeromonas sobria (Asb A, OXA-12, Asb M); assay type: functional; also: test concentration or dose not given here
Escherichia coli [17] = assay: In vitro synergistic activity against Escherichia coli ATCC 25922 (no beta-lactamase); assay type: functional; also: test concentration or dose not given here
Serratia marcescens = assay: In vitro synergistic activity against Serratia marcescens GC 4132 (Amp C); assay type: functional; also: test concentration or dose not given here
Escherichia coli [18] = assay: In vitro synergistic activity against Escherichia coli C600N + (MIR-1); assay type: functional
Escherichia coli [19] = assay: In vitro synergistic activity against Escherichia coli C600N + (OXA-10) {PSE-2}; assay type: functional
Escherichia coli [20] = assay: In vitro synergistic activity against Escherichia coli C600N + (L1); assay type: functional
Escherichia coli [21] = assay: In vitro synergistic activity against Escherichia coli GC 6266 clinical isolate; assay type: functional
Escherichia coli [22] = assay: In vitro synergistic activity against Escherichia coli C600N (no beta-lactamase); assay type: functional
[23] = test system: Stenotrophomonas maltophilia; assay: In vitro synergistic activity against Stenotrophomonas maltophilia 1712(L1); assay type: functional; also: test concentration or dose not given here
Escherichia coli [24] = assay: In vitro synergistic activity against Escherichia coli GC6267 clinical isolate; assay type: functional
Enterobacter cloacae [25] = assay: In vitro synergistic activity against Enterobacter cloacae SC12629 (AmpC inducible); assay type: functional; also: test concentration or dose not given here
Klebsiella pneumoniae [26] = assay: In vitro synergistic activity against Klebsiella pneumoniae KC2 (TEM-10); assay type: functional
Klebsiella pneumoniae [27] = assay: In vitro synergistic activity against Klebsiella pneumoniae GC 6269 clinical isolate; assay type: functional; also: test concentration or dose not given here
Escherichia coli [28] = assay: In vitro synergistic activity against Escherichia coli C600N + (Sme-1); assay type: functional
Escherichia coli [29] = assay: In vitro synergistic activity against Escherichia coli GC6265 (TEM-1); assay type: functional
Escherichia coli [30] = assay: In vitro synergistic activity against Escherichia coli C600N + (TEM-1); assay type: functional
Escherichia coli [31] = assay: In vitro synergistic activity against Escherichia coli C600N + (ampR ampC); assay type: functional; also: test concentration or dose not given here
Escherichia coli [32] = assay: In vitro synergistic activity against Escherichia coli 300 (no beta-lactamase, imp mutant); assay type: functional

T1 sequence (P00807 whole entry): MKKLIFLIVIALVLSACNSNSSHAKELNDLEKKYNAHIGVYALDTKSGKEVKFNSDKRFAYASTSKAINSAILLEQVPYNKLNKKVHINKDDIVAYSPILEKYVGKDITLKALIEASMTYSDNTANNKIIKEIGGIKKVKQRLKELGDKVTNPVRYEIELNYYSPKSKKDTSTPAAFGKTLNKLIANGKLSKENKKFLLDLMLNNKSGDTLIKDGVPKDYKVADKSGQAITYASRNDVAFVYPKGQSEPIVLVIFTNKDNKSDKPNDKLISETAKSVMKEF

Structure (SMILES)	IC50 (Beta-lactamase [1])	IC50 (Beta-lactamase TEM)	IC50 (Beta-lactamase [2])	MIC (Klebsiella aerogenes)	MIC (Escherichia coli [3])	MIC (Escherichia coli [4])	MIC (Staphylococcus aureus)	MIC (Escherichia coli [5])	MIC (Escherichia coli [6])	MIC (Escherichia coli [8])	MIC (Klebsiella pneumoniae [9])	MIC (Pseudomonas aeruginosa)	MIC (Enterobacter cloacae [10])	MIC (Escherichia coli [13])	MIC (Escherichia coli [14])	MIC (Escherichia coli [15])	MIC (Escherichia coli [16])	MIC (Aeromonas sobria)	MIC (Escherichia coli [17])	MIC (Serratia marcescens)	other results
C[C@]1(COC(=O)Cc2ccccc2)[C@H](C(=O)O)N2C(=O)/C(=C/C(=O)O)C2S1(=O)=O (stereo partly drawn)	579000 nM	15.4 nM	540 nM																		
COC(=O)/C=C1/C(=O)N2C1S(=O)(=O)[C@@](C)(CCl)[C@@H]2C(=O)O (stereo partly drawn)	432000 nM		13900 nM																		
Cn1nnnc1SCC(=O)OC[C@@]1(C)[C@H](C(=O)O)N2C(=O)/C(=C/C(=O)O)C2S1(=O)=O (stereo partly drawn)		233 nM	640 nM																		
CC(=O)OC[C@@]1(C)[C@H](C(=O)O)N2C(=O)/C(=C/c3ccccn3)C2S1(=O)=O (stereo partly drawn)	660 nM	4 nM	62 nM																		
C[C@]1(COC(=O)Cc2ccccc2)[C@H](C(=O)O)N2C(=O)/C(=C/c3ccccn3)C2S1(=O)=O (stereo partly drawn)	390 nM	40 nM	1 nM																		
CCN1CCN(C(=O)NC(C(=O)N[C@@H]2C(=O)N3[C@@H]2SC(C)(C)[C@@H]3C(=O)[O-])c2ccccc2)C(=O)C1=O.C[C@]1(Cn2ccnn2)C(C(=O)[O-])N2C(=O)C[C@H]2S1(=O)=O.[Na+].[Na+] (stereo partly drawn)				32 µg/mL	< 0.06 µg/mL	1 µg/mL	1 µg/mL	4 µg/mL	16 µg/mL	8 µg/mL	32 µg/mL	16 µg/mL	16 µg/mL	8 µg/mL	> 64 µg/mL	4 µg/mL	1 µg/mL	64 µg/mL	2 µg/mL	32 µg/mL	MIC (Escherichia coli [7]): 2 µg/mL; MIC (Escherichia coli [11]): 2 µg/mL; MIC (Escherichia coli [12]): 2 µg/mL; MIC (Escherichia coli [18]): 8 µg/mL; MIC (Escherichia coli [19]): 2 µg/mL; MIC (Escherichia coli [20]): > 64 µg/mL; MIC (Escherichia coli [21]): 16 µg/mL; MIC (Escherichia coli [22]): 2 µg/mL; MIC [23]: > 64 µg/mL; MIC (Escherichia coli [24]): 16 µg/mL; MIC (Enterobacter cloacae [25]): > 64 µg/mL; MIC (Klebsiella pneumoniae [26]): 2 µg/mL; MIC (Klebsiella pneumoniae [27]): 8 µg/mL; MIC (Escherichia coli [28]): 8 µg/mL; MIC (Escherichia coli [29]): 4 µg/mL; MIC (Escherichia coli [30]): 4 µg/mL; MIC (Escherichia coli [31]): 8 µg/mL
C[C@]1(COC(=O)Cc2ccc(O)c(O)c2)[C@H](C(=O)[O-])N2C(=O)/C(=C/c3ccccn3)C2S1(=O)=O.[Na+] (stereo partly drawn)	700 nM	60 nM	26 nM	> 64 µg/mL	> 64 µg/mL	> 64 µg/mL	> 64 µg/mL	> 64 µg/mL	> 64 µg/mL	> 64 µg/mL	> 64 µg/mL	> 64 µg/mL	> 64 µg/mL	> 64 µg/mL	> 64 µg/mL	> 64 µg/mL	> 64 µg/mL	> 64 µg/mL	> 64 µg/mL	> 64 µg/mL	MIC (Escherichia coli [18]): > 64 µg/mL; MIC (Escherichia coli [20]): > 64 µg/mL; MIC (Escherichia coli [21]): > 64 µg/mL; MIC [23]: > 64 µg/mL; MIC (Escherichia coli [24]): > 64 µg/mL; MIC (Enterobacter cloacae [25]): > 64 µg/mL; MIC (Klebsiella pneumoniae [26]): > 64 µg/mL; MIC (Klebsiella pneumoniae [27]): > 64 µg/mL; MIC (Escherichia coli [28]): > 64 µg/mL; MIC (Escherichia coli [29]): > 64 µg/mL; MIC (Escherichia coli [31]): > 64 µg/mL
CC(=O)OC[C@@]1(C)[C@H](C(=O)O)N2C(=O)/C(=C/C(N)=O)C2S1(=O)=O (stereo partly drawn)	2210 nM	310 nM	8480 nM																		
C[C@]1(COC(=O)Cc2ccc(O)c(O)c2)[C@H](C(=O)O)N2C(=O)/C(=C/C(=O)O)C2S1(=O)=O (stereo partly drawn)	116000 nM		370 nM																		
CCN1CCN(C(=O)NC(C(=O)N[C@@H]2C(=O)N3[C@@H]2SC(C)(C)[C@@H]3C(=O)[O-])c2ccccc2)C(=O)C1=O.C[C@]1(COC(=O)Cc2ccc(O)c(O)c2)[C@H](C(=O)[O-])N2C(=O)/C(=C/c3ccccn3)C2S1(=O)=O.[Na+].[Na+] (stereo partly drawn)				64 µg/mL	< 0.06 µg/mL	2 µg/mL	1 µg/mL	2 µg/mL	8 µg/mL	16 µg/mL	32 µg/mL	2 µg/mL	16 µg/mL	2 µg/mL	> 64 µg/mL	1 µg/mL	1 µg/mL	1 µg/mL	1 µg/mL	4 µg/mL	MIC (Escherichia coli [7]): 2 µg/mL; MIC (Escherichia coli [11]): 2 µg/mL; MIC (Escherichia coli [12]): 2 µg/mL; MIC (Escherichia coli [32]): < 0.006 µg/mL; MIC (Escherichia coli [18]): 8 µg/mL; MIC (Escherichia coli [19]): 2 µg/mL; MIC (Escherichia coli [20]): 64 µg/mL; MIC (Escherichia coli [21]): 16 µg/mL; MIC (Escherichia coli [22]): 1 µg/mL; MIC [23]: > 64 µg/mL; MIC (Escherichia coli [24]): 16 µg/mL; MIC (Enterobacter cloacae [25]): 64 µg/mL; MIC (Klebsiella pneumoniae [26]): 4 µg/mL; MIC (Klebsiella pneumoniae [27]): 8 µg/mL; MIC (Escherichia coli [28]): 8 µg/mL; MIC (Escherichia coli [29]): 4 µg/mL; MIC (Escherichia coli [30]): 2 µg/mL; MIC (Escherichia coli [31]): 16 µg/mL
